Assay results from patent publication US11400083B2, “CXCR4 antagonists with amino acid skeleton, preparation therefor and biomedical use thereof” (Tsinghua University, priority 2017, dated 2022).

Assays:
CXCR4 [1] = target: T1, CXCR4 (Homo sapiens, UniProt P61073); test: Inhibition of intracellular calcium mobilization (SupT1 cells, SDF-1α, Fluo-4); type: cell-based; conditions: 50 nM SDF-1α
Procedure: 3. Experimental method: the cell line used in this assay was SupT1. Prior to the experiment, the cells were collected and washed with an experimental buffer (an HBSS buffer containing 20 mM HEPES), and then incubated with a buffer containing 4 μM Fluo-4 and 1 mM probenecid sodium for 30 min at 37° C., after which the residual dye was washed away, and the cells were suspended to a concentration of 2×10^6 cells/ml. Afterwards, 200 μl of the cell suspension was taken and added to a black 96-well plate, and absorption values of the cells at 494 nmEX/516 nmEM were recorded. Subsequently, different concentrations of compound were added and mixed uniformly, and the baseline was recorded. Thereafter, 50 nM of the SDF-1α was added and mixed uniformly. Signals of calcium ions were recorded, and the differences in fluorescence intensity between a group without addition of the compound and groups added with different concentrations of the compound were observed. 4.

CXCR4 [2] = target: T1, CXCR4; test: Inhibition of CXCR4 induced cell migration (SupT1 cells, SDF-1α, transwell); type: cell-based; conditions: 2 nM SDF-1α, concentration-dependent, FIG. 1
Procedure: 1. Experimental method: the assay on the CXCR4 induced cell migration was detected using SupT1 cell line which naturally expresses the CXCR4. SupT1 cells cultured and suspended in RPMI 1640 (containing 10% fetal bovine serum, 100 IU penicillin and 0.1 mg/ml streptomycin) were collected and then washed with RPMI 1640 containing 0.5% BSA, after which the cells are counted and suspended to a concentration of 3.0×10^7 cells/ml, and then uniformly mixed with different concentrations of compound. Then, 75 μl of the obtained mixture was taken and added to a tranwell insert, and incubated at 37° C. for 30 min. […] After incubation at 37° C. for 3 hours, the tranwell insert was removed, and 40 μl of CellTiter 96 (Promega) was added to each cell of the lower culture plate. After 1 to 4 hours of incubation, absorption values at 490 nm were detected. The experimental results of each group were obtained by at least three independent experiments, and the inhibition curve was plotted by the GraphPad software. 2.

[3] = Cytotoxicity assay (CellTiter 96, 72 h); type: cell-based; conditions: human; HEK293 cells, 72 hours incubation
Procedure: 1. Experimental method: the experiment was carried out using HEK293 cell line. The HEK293 cells cultured in DMEM medium (containing 10% fetal bovine serum, 100 IU penicillin and 0.1 mg/ml streptomycin) were trypsinized, counted, and plated in a 96-well plate with each well containing 100 μl suspension and including 3×10^3 cells in total. After culturation in a constant-temperature incubator containing 5% CO2 at 37° C. overnight, different concentrations of the compound were added. After 72 hours of incubation in total, 20 μl CellTiter 96 was added to further incubate for 1 to 4 hours, and then an absorption value at 490 nm was measured on a microplate reader. The changes in cell viability prior to and subsequent to the addition of the compound were observed by comparing the values of the blank control group and the experimental group. 2.

CXCR4 [4] = target: T1, CXCR4; test: Binding affinity assay on CXCR4 receptor protein (inhibition of 12G5 monoclonal antibody binding, CHO cells stably transfected with CXCR4); design: expressed in transfected cells; host or cells: CHO cells, stably transfected (G418 selection); conditions: 40 min; 0.1 μM compound; inhibition of 12G5 antibody binding to CXCR4 on CHO-CXCR4 cells; read-out: Inhibition ratio interval of compounds at 0.1 μM
Procedure: 3. Experimental method: the cell line used for the affinity activity assay of the CXCR4 was a CHO cell line constructed in vitro and stably transfected with CXCR4. The CHO cell line cultured in DMEM medium (containing 10% fetal bovine serum, 100 IU penicillin, 0.1 mg/ml streptomycin and 0.2 mg/ml G418) was trypsinized, washed, counted, and then suspended in an FACS buffer (PBS containing 0.5% BSA and 0.05% NaN3), followed by being plated in a 96-well plate. Each cell contains 100 μl of the reaction system, which includes 5×10^5 cells, 250 ng/ml 12G5 monoclonal antibody and different concentrations of compound for detection. After incubated on ice for 40 min and washed with the FACS buffer, the reaction system was added with the secondary antibody (anti-mouse FITC-labeled IgG) for further incubation on ice for 30 min and then washed twice with the FACS buffer. Absorption values at 485 nmEX/535 nmEM were measured on a microplate reader (PerkinElmer), and fluorescence intensities were recorded. For each compound, a percentage of the compound that inhibits the binding of the 12G5 monoclonal antibody to the receptor CXCR4, i.e. a binding inhibition ratio at 0.1 μM, was calculated. 4. […] The inhibition ratio of the compounds is divided into the following intervals: 75% to 100% for A, 50% to 74% for B, 25% to 49% for C, and 0 to 24% for D.

T1 sequence (P61073 whole entry): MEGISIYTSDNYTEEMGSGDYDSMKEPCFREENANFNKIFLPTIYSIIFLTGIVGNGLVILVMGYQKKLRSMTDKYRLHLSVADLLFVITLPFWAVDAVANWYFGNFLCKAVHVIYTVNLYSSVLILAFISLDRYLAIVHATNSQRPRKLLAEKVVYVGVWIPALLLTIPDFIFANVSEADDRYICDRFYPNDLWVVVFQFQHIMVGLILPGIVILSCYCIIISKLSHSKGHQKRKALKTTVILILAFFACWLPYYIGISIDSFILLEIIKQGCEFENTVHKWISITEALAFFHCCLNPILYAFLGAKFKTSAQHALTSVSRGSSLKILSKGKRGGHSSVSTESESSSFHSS

Compound	Inhibition of signal of calcium mobilization (CXCR4 [1]; compound at 1.0 μM, FIG. 3)	Inhibition of CXCR4 induced cell migration (CXCR4 [2])	Inhibition of signal of calcium mobilization (CXCR4 [1]; compound at 0.2 μM, FIG. 2)	IC50 at 72 h [3] [µM]	inhibition at 0.1 µM (CXCR4 [4]) [%]
c1cc(CN2CCCNCCNCCCNCC2)ccc1CN1CCCNCCNCCCNCC1 [AMD3100, plerixafor, reference compound]	fails to inhibit	–	–	–	–
N=C(N)NCCC[C@H](NCc1ccccn1)C(=O)NCc1ccc(CNCCCNC2CCCCC2)cc1 [Compound 1]	–	significant inhibiting ability	completely inhibit	> 50	75 to 100
N=C(N)NCCC[C@H](NC(=O)c1ccc(F)cc1)C(=O)NCc1ccc(CNCCCNC2CCCCC2)cc1 [Compound 2]	–	–	–	> 50	50 to 74
N=C(N)NCCC[C@H](NCc1ccccn1)C(=O)NCc1ccccc1 [Compound 3]	–	–	–	–	0 to 24
N=C(N)NCCC[C@H](NCc1ccccn1)C(=O)NCc1ccc(CNC2CCCCC2)cc1 [Compound 4]	–	–	–	> 50	0 to 24
N=C(N)NCCC[C@H](N)C(=O)NCc1ccc(CNCCCNC2CCCCC2)cc1 [Compound 5]	–	–	–	> 50	25 to 49
N=C(N)NCCC[C@@H](NCc1ccccn1)C(=O)NCc1ccc(CNCCCNC2CCCCC2)cc1 [Compound 6]	–	–	–	> 50	50 to 74
N=C(N)NCCC[C@H](NC(=O)C1CCC(F)(F)CC1)C(=O)NCc1ccc(CNCCCNC2CCCCC2)cc1 [Compound 7]	–	–	–	> 50	50 to 74
N=C(N)NCCC[C@H](NCc1ccc(F)cc1)C(=O)NCc1ccc(CNCCCNC2CCCCC2)cc1 [Compound 8]	–	–	–	> 50	50 to 74
CN(C)c1ccc(CN[C@@H](CCCNC(=N)N)C(=O)NCc2ccc(CNCCCNC3CCCCC3)cc2)cc1 [Compound 9]	–	–	–	> 50	75 to 100
N=C(N)NCCC[C@H](NCc1cccc2ccccc12)C(=O)NCc1ccc(CNCCCNC2CCCCC2)cc1 [Compound 10]	–	–	–	> 50	50 to 74
N=C(N)NCCC[C@H](NCc1ccc(-c2ccccc2)cc1)C(=O)NCc1ccc(CNCCCNC2CCCCC2)cc1 [Compound 11]	–	–	–	> 50	50 to 74
N=C(N)NCCC[C@H](NCc1cc(C(F)(F)F)cc(C(F)(F)F)c1)C(=O)NCc1ccc(CNCCCNC2CCCCC2)cc1 [Compound 12]	–	–	–	> 50	0 to 24
N=C(N)NCCC[C@H](NCc1ncc[nH]1)C(=O)NCc1ccc(CNCCCNC2CCCCC2)cc1 [Compound 13]	–	–	–	> 50	50 to 74
N=C(N)NCCC[C@H](NC1CCCc2cccnc21)C(=O)NCc1ccc(CNCCCNC2CCCCC2)cc1 (some centres unmarked) [Compound 14]	–	–	–	–	0 to 24
N=C(N)NCCC[C@H](NC1CCCCC1)C(=O)NCc1ccc(CNCCCNC2CCCCC2)cc1 [Compound 15]	–	–	–	> 20	50 to 74
N=C(N)NCCC[C@H](NCC1CCCCC1)C(=O)NCc1ccc(CNCCCNC2CCCCC2)cc1 [Compound 16]	–	–	–	> 50	75 to 100

Compound	Inhibition of signal of calcium mobilization (CXCR4 [1]; compound at 1.0 μM, FIG. 3)	Inhibition of CXCR4 induced cell migration (CXCR4 [2])	Inhibition of signal of calcium mobilization (CXCR4 [1]; compound at 0.2 μM, FIG. 2)	IC50 at 72 h [3] [µM]	inhibition at 0.1 µM (CXCR4 [4]) [%]
NCCCC[C@H](NCc1ccccn1)C(=O)NCc1ccc(CNCCCNC2CCCCC2)cc1 [Compound 17]	–	–	–	> 50	75 to 100
CC(C)NCCCC[C@H](NCc1ccccn1)C(=O)NCc1ccc(CNCCCNC2CCCCC2)cc1 [Compound 18]	–	–	–	> 50	75 to 100
O=C(NCc1ccc(CNCCCNC2CCCCC2)cc1)[C@H](CCCCNC1CCCCC1)NCc1ccccn1 [Compound 19]	–	–	–	> 50	75 to 100
O=C(NCc1ccc(CNCCCNC2CCCCC2)cc1)[C@H](CCCNC1CCCCC1)NCc1ccccn1 [Compound 20]	–	–	–	> 50	50 to 74
O=C(NCc1ccc(CNCCCNC2CCCCC2)cc1)[C@H](Cc1c[nH]cn1)NCc1ccccn1 [Compound 21]	–	–	–	> 50	75 to 100
O=C(O)C[C@H](NCc1ccccn1)C(=O)NCc1ccc(CNCCCNC2CCCCC2)cc1 [Compound 22]	–	–	–	> 50	50 to 74
C[C@H](NCc1ccccn1)C(=O)NCc1ccc(CNCCCNC2CCCCC2)cc1 [Compound 23]	–	–	–	> 50	75 to 100
O=C(NCc1ccc(CNCCCNC2CCCCC2)cc1)[C@H](CO)NCc1ccccn1 [Compound 24]	–	–	–	> 50	75 to 100
O=C(NCc1ccc(CNCCCNC2CCCCC2)cc1)[C@H](Cc1ccc2ccccc2c1)NCc1ccccn1 [Compound 25]	–	–	–	> 10	50 to 74
O=C(NCc1ccc(CNCCCNC2CCCCC2)cc1)[C@H](Cc1c[nH]c2ccccc12)NCc1ccccn1 [Compound 26]	–	–	–	> 50	75 to 100
O=C(NCc1ccc(CNCCCNC2CCCCC2)cc1)[C@H](Cc1ccc(O)cc1)NCc1ccccn1 [Compound 27]	–	–	–	> 50	50 to 74
CC(C)C[C@H](NCc1ccccn1)C(=O)NCc1ccc(CNCCCNC2CCCCC2)cc1 [Compound 28]	–	–	–	> 50	25 to 49
O=C(NCc1ccc(CNCCCNC2CCCCC2)cc1)[C@@H]1CCCN1Cc1ccccn1 [Compound 29]	–	–	–	> 50	75 to 100
O=C(NCc1ccc(CNCCCNC2CCCCC2)cc1)[C@@H]1Cc2ccccc2CN1Cc1ccccn1 [Compound 30]	–	–	–	> 20	75 to 100
N=C(N)NCCC[C@H](NC(=O)[C@@H](N)Cc1ccc(O)cc1)C(=O)NCc1ccc(CNCCCNC2CCCCC2)cc1 [Compound 31]	–	–	–	> 50	75 to 100
N=C(N)NCCC[C@H](N)C(=O)N[C@@H](Cc1ccc2ccccc2c1)C(=O)NCc1ccc(CNCCCNC2CCCCC2)cc1 [Compound 32]	–	–	–	> 50	75 to 100
